Assay results as given in patent publication US8680075B2, “Methods and compositions for inhibiting cellular proliferation and surgical adhesion” (Novelmed Therapeutics, Inc., priority 2009, dated 2014).
“Also recorded” adds a separate entry of the source.

Tests used:
3T3 cells = assay: 3T3 cell proliferation assay (Cy Quant fluorescence); type: cell-based; conditions: 1 to 600 μg/ml, 5 days, DMEM 10% FCS
Procedure: Approximately 50,000 cells were plated in a 96 well ELISA plate. The cells were allowed to grow in DMEM with 10% FCS media for 5 days, following which the cells were treated with Cy Quant assay and the inhibition of cellular proliferation was measured using the decreased fluorescence intensity. To evaluate the effect of various concentrations of NM2040 in the cellular proliferation assay, cultures were treated with concentrations ranging from 1 to 600 μg/ml. The total fluorescence intensity was plotted against the concentrations.

C6 cells = assay: Glioma (C6 cell) proliferation in cloning ring culture; type: cell-based; conditions: five days; for concentration of maximal effect on glioma proliferation: C6 cells
Procedure: In a six well plate, a cloning ring of 6 mm diameter was placed and 60 μl aliquot of cellular suspension (stock containing 320,000 cells/ml of C6 cells) was prepared and placed in the center of each well of a six well plate in the cloning ring. After 4 h, the media was removed and the cells were incubated with Opti-MEM 1× media with and without the compound. These cultures were incubated at 37° C. and with 10% CO2 for five days, following which the pictures were taken as shown in FIG. 2. The compound effect appears to be dose dependent with maximal effect shown at […]. The first panel is for controls (untreated), the second panel at 3 mg/ml, the third panel at 1.5 mg/ml, the fourth panel at 0.75 mg/ml, and the fifth panel at 0.36 mg/ml.

C3a = C3a formation in whole blood tubing loop (ELISA); type: cell-based; conditions: heparinized human whole blood 1:1 plasmalyte, tubing loop 2 hours 37° C.
Procedure: (§1) Chemotactic peptides are produced at the injury site, which can attract inflammatory cells at the injury site causing inflammation. NM2040 was tested to determine if this compound would inhibit the production of the C3a and C5a. The compound was incubated with blood at 37 degree in a rotating tubing loops. Whole blood from a healthy donor was collected into a polypropylene tube containing 5 units of heparin per ml of whole blood. The whole blood was diluted 1:1 with plasmalyte and aliquoted in 2 ml aliquots with and without drug treatments. PVC tubings of 4 mm diameter were filled with 2.0 ml of the heparinized human blood and closed into a loop with a short piece of silicon tubing. Sample and control tubing loops were rotated vertically in a water bath for 2 hours at 37° C. After incubation, blood samples were transferred into 5 ml siliconized eppendorf tubes. The samples were separated into two aliquots; one aliquot was subjected to flow cytometry studies and the other aliquot was centrifuged to separate the plasma for the measurement of C3a and C5a. The plasma samples were diluted to 5% with sample diluent buffer and the amounts of C3a and C5a were determined using ELISA assay kits following the manufacturer's instructions (Quidel Corporation, San Diego Calif.). […] In the same experiment, NM3015 was also evaluated. […]

C5a = C5a formation in whole blood tubing loop (ELISA); type: cell-based; conditions: heparinized human whole blood 1:1 plasmalyte, tubing loop 2 hours 37° C.
Procedure: as §1

alternative pathway = assay: Alternative pathway (AP) activation; type: cell-based, human
Procedure: as §1

platelets [1] = assay: Platelet damage / platelet number after tubing loop (flow cytometry CD61/CD62P); type: cell-based, human; conditions: blood after tubing loop, FITC CD61 positive platelets
Procedure: as §1, with “The samples were separated into two aliquots; one aliquot was subjected to flow cytometry studies and the other aliquot was centrifuged to separate the plasma for the measurement of C3a and C5a.” left out
Aliquots of blood following the tubing loop were stained with fluorescent labeled antibodies for flow cytometry studies. […] The samples were subjected to flow cytometry using CellQuest, BD-LSR I and the data were analyzed using WinList 5.0. […]

neutrophils = assay: Neutrophil activation after tubing loop (flow cytometry CD15/CD11b); type: cell-based, human; conditions: blood after tubing loop
Procedure: as §1, with “Sample and control tubing loops were rotated vertically in a water bath for 2 hours at 37° C. After incubation, blood samples were transferred into 5 ml siliconized eppendorf tubes. The samples were separated into two aliquots; one aliquot was subjected to flow cytometry studies and the other aliquot was centrifuged to separate the plasma for the measurement of C3a and C5a.” left out
(§2) Aliquots of blood following the tubing loop were stained with fluorescent labeled antibodies for flow cytometry studies. […] The samples were subjected to flow cytometry using CellQuest, BD-LSR I and the data were analyzed using WinList 5.0. Ln Median was used for calculating the shift in CD11b staining for neutrophils and monocytes. % gated dual labeled cells were quantified for platelet populations.

monocytes = assay: Monocyte activation after tubing loop (flow cytometry CD14/CD11b); type: cell-based, human; conditions: blood after tubing loop
Procedure: as §1, with “Sample and control tubing loops were rotated vertically in a water bath for 2 hours at 37° C. After incubation, blood samples were transferred into 5 ml siliconized eppendorf tubes. The samples were separated into two aliquots; one aliquot was subjected to flow cytometry studies and the other aliquot was centrifuged to separate the plasma for the measurement of C3a and C5a.” left out
as §2

platelets [2] = assay: Platelet activation after tubing loop (flow cytometry CD61/CD62P); type: cell-based, human; conditions: blood after tubing loop
Procedure: as §1, with “Sample and control tubing loops were rotated vertically in a water bath for 2 hours at 37° C. After incubation, blood samples were transferred into 5 ml siliconized eppendorf tubes. The samples were separated into two aliquots; one aliquot was subjected to flow cytometry studies and the other aliquot was centrifuged to separate the plasma for the measurement of C3a and C5a.” left out
as §2

[3] = system: epidural fibrosis after lumbar laminectomy; assay: Rat laminectomy epidural fibrosis model, Example 6; type: in vivo; conditions: two weeks after laminectomy
Excerpt: The scar tissue attachment to the spinal cord is believed to be the cause of long-term, recurrent pain following laminectomy procedures. The epidural fibrosis refers to the scar tissue that forms following a laminectomy procedure. Laminectomy refers to back surgery of the lamina. Scar tissue forms within the laminectomy site and binds the undersurface of the erector spinae muscles to the posterior and lateral surfaces of the dura mater and to the nerve roots exiting through the dura matter. Epidural fibrosis was investigated after lumbar laminectomy in rats. In this model, a laminectomy is performed at the lumbar 3 (L3) and 5 (L5) vertebrae and then the test agent is applied to the laminectomy site. Subsequently, the laminectomy sites are examined for fibrosis by gross dissection.
Laminectomies were performed at lumbar vertebrae L3 and L5 to provide auto-controls within each animal. Gelfoam-NM2040 mix was prepared and used on Laminectomy sites in rats. Lewis inbred rats were anesthetized isofluorane. The dorsal skin was incised and the paraspinal muscles were separated from the spinous processes of lumbar vertebrae L2 through L6 to expose the L3 and L5. The spinous processes of L3 and L5 were removed and the vertebral lamina was also removed creating a rectangular laminectomy defect. The test material was placed onto the laminectomy site. […] The site and the tissue were scored 0 to 2. […]

[4] = system: epidural fibrosis after laminectomy; assay: Rat laminectomy epidural fibrosis model, Example 8; type: in vivo
Procedure: Epidural fibrosis was investigated after laminectomies in adult Lewis rats. Laminectomies were performed at the lumbar 3 (L3) and 5 (L5) vertebrae. The test agent gel was applied to one site and saline (control) was applied to the other. Two weeks later, the laminectomy sites were examined for fibrosis by gross dissection as previously described. Briefly, rats were anesthetized. The dorsal skin was incised and the paraspinal muscles were separated from the spinous processes of lumbar vertebrae L2 through L6 to expose L3 and L5. The spinous processes of L3 and L5 and the vertebral lamina were removed, creating a rectangular laminectomy defect approximately 5×2 mm (FIG. 11A). The test material NM2040, or vehicle was placed onto the laminectomy site according to randomized, coded protocol (FIG. 11B). The formulation of NM2040 consisted of 10% gel foam powder, 20 mg/ml final concentration in sterile saline. The mixtures were placed in a syringe, autoclaved and allowed to cool to room temperature prior to placement into the laminectomy site. The fascia overlying the paraspinal muscles was sutured 5-0 polydoxanone PDS resorbable suture (Ethicon) and the skin incision was closed with 7.5 mm Michel wound clips. After two weeks, animals were anesthetized and subjected to gross evaluation. For gross evaluation, the wound site was reopened by incising the skin and separating the paraspinal muscles. Epidural scar formation was designated as the connective tissue between the test material and the dura mater. The thickness and toughness of the deep scar was evaluated by blunt dissection and scored 0 to 2.0 being the “no adhesions” with the dura mater clearly visible, 1 being a thin, lose connective tissue covering the dura that was easily removed, and 2 being a thick, dense tenacious adhesion that was difficult to impossible to remove without tearing the dura. Scoring was completed without knowledge of treatment at any of the laminectomy sites.

For “conjugate of dextran sulfate and 2-(butane-1-sulfonylamino)-3-[4-(4-piperidin-4-yl-butoxy)-phenyl]-propionic acid [NM2040]”, the 3T3 cell proliferation (3T3 cells) was “Inhibits”, the “glioma proliferation, effect” value (C6 cells; C6 cells, 0.36, 0.75, 1.5 and 3 mg/ml) was “inhibitory at all doses” and the “concentration of maximal effect on glioma proliferation” value (C6 cells; first statement) was 3 µg/mL. The “concentration of maximal effect on glioma proliferation” value (C6 cells; second statement) was ~1000 µg/mL, the C3a production (C3a) was “prevent C3a and C5a production in a dose dependent manner” and the C5a production (C5a) was “prevent C3a and C5a production in a dose dependent manner”. The “activation of the alternative pathway” value (alternative pathway) was “inhibits activation of the alternative pathway”, the “effect on platelets (platelet damage / number)” value (platelets [1]) was “does not affect the platelets; also recorded: does not destroy platelets” and the “neutrophil activation (CD11b shift)” value (neutrophils) was “significant inhibition of cellular activation”. For the same substance, the “monocyte activation (CD11b shift)” value (monocytes) was “significant inhibition of cellular activation”, the “platelet activation (% gated CD61/CD62P dual labeled)” value (platelets [2]) was “significant inhibition of cellular activation” and the “adhesion scores compared to saline controls” value [3] was “significantly lower”. The “adhesion scores compared to treatment with vehicle” value ([4]; two weeks after laminectomy) was “significantly reduces adhesion scores”, the “gross appearance of laminectomy site” value ([4]; two weeks after laminectomy) was “thin easily removed connective tissue above the dura to no adhesions” and the “average gross evaluation score of epidural scar (0 to 2)” value ([4]; two weeks after laminectomy, gel at site, saline sites scored 2) was 0.5. For the same substance, the “histological sections of the vertebral column at L3 (Masson trichrome)” value ([4]; two weeks, compared to controls) was “smooth filling” and the “MRI appearance of laminectomy site” value ([4]; two weeks, compared to saline controls) was “the tissue appears to be smooth”.
